The values below come from patent US12098151B2 (priority 2018, dated 2024).

pEC50: −log10 of the molar value. “And” between values parts separate entries of the source, which are not always exact repeats. Identical values can stand only once. Like-named read-outs stand apart in the source and are kept apart here.

The test system of assay [1] is LCMV. Put plainly: microbe, parasite or virus in culture. The assay is classed as cell-based, lymphocytic choriomeningitis virus (LCMV).
Assay [2] concerns Lassa virus (Josiah strain). The class given is cell-based.
Assay [3] has as its system Junin virus. The experiment in a line: microbe, parasite or virus in culture. The assay is classed as cell-based.
Assay [4] relates to Lassa virus (LF2384 strain). The experiment in a line: microbe, parasite or virus in culture. The class given is cell-based. The note with it: Mammarenavirus lassaense, Vero, 72 h, read-out: Log10 of IC90 (nM) (converted).
[5] abbreviates: Mammarenavirus choriomeningitidis, KB, 96 h.
[6] abbreviates: Mammarenavirus juninense, HEK-293T, 96 h.

In assay [1] (setting [5]), `CC(C)N1CN(C2c3ccccc3CCc3ccccc32)n2cc(C(=O)O)c(=O)c(O)c2C1=O` [Compound I-021] showed a pEC50 of 8.70. In addition, in assay [2], the “Lassa virus proliferation inhibitory effect compared with control compound Ribavirin” value is given as “significantly stronger Lassa virus proliferation inhibitory effect than the control compound Ribavirin”; the “Virus infectivity titer (24 h.p.i., PFU/ml)” value is 5 × 10^4 PFU/ml and <10 PFU/ml; the “Virus infectivity titer (48 h.p.i., PFU/ml)” value is 5 × 10^6 PFU/ml and 5 × 10^3 PFU/ml. Moreover, the pEC50 in assay [3] (setting [6]) is 8.09. Moreover, the IC90 in assay [4] is 3.1 nM.
With `O=C(O)c1cn2c(c(O)c1=O)C(=O)N1CCCO[C@@H]1[C@@H]2Cc1ccccc1` [Compound I-054], the values for the pEC50 in assay [1] (setting [5]) and in assay [3] (setting [6]) were 5.71 and 5.79, respectively.
The matching figures for `COCCN1C[C@H](Cc2ccccc2)n2cc(C(=O)O)c(=O)c(O)c2C1=O` [Compound I-057]: 6.65 and 5.66.
Turning to `CC(C)N1CN(C2c3cc(F)c(F)cc3CCc3cc(F)c(F)cc32)n2cc(C(=O)O)c(=O)c(O)c2C1=O` [Compound I-074], the pEC50 in assay [1] (setting [5]) was 7.32; in assay [3] (setting [6]), 7.30.
The matching figures for `Cc1cccc2c1CCc1c(C)cccc1C2N1CN(C(C)C)C(=O)c2c(O)c(=O)c(C(=O)O)cn21` [Compound I-075]: 8.51 and 8.77.
The matching figures for `Cc1ccc2c(c1)CCc1cc(C)ccc1C2N1CN(C(C)C)C(=O)c2c(O)c(=O)c(C(=O)O)cn21` [Compound I-076]: 7.89 and 7.47.
The matching figures for `CC(C)N1CN(C2c3cccc(F)c3CCc3c(F)cccc32)n2cc(C(=O)O)c(=O)c(O)c2C1=O` [Compound I-077]: 8.48 and 8.74.
Turning to `CCN1CN(C2c3ccccc3CCc3ccccc32)n2cc(C(=O)O)c(=O)c(O)c2C1=O` [Compound I-078], the negative-log EC50 (pEC50) is 8.21 in assay [1] (setting [5]) and 8.48 in assay [3] (setting [6]). Besides, in assay [4], the IC90 is 3.14 nM.
Take `COCCN1CN(C2c3ccccc3CCc3ccccc32)n2cc(C(=O)O)c(=O)c(O)c2C1=O` [Compound I-079]: the pEC50 is 8.28 in assay [1] (setting [5]) and 8.30 in assay [3] (setting [6]).
The matching figures for `CC(C)N1CN(Cc2ccccc2-c2ccccc2)n2cc(C(=O)O)c(=O)c(O)c2C1=O` [Compound I-080]: 6.30 and 6.36.
In the case of `O=C(O)c1cn2c(c(O)c1=O)C(=O)N(Cc1ccc(F)cc1F)CN2C1c2ccccc2CCc2ccccc21` [Compound I-081], the pEC50 in assay [1] (setting [5]) is 7.62; in assay [3] (setting [6]), 8.21.
On to `O=C(O)c1cn2c(c(O)c1=O)C(=O)N(C1CC1)CN2C1c2ccccc2CCc2ccccc21` [II-001], for which the pEC50 in assay [1] (setting [5]) is 8.09; in assay [3] (setting [6]) it was 8.35.
The matching figures for `O=C(O)c1cn2c(c(O)c1=O)C(=O)N(C[C@@H]1CCCO1)CN2C1c2ccccc2CCc2ccccc21` [II-002]: 8.15 and 7.92.
As to `O=C(O)c1cn2c(c(O)c1=O)C(=O)N(CC1CC1)CN2C1c2ccccc2CCc2ccccc21` [II-003], the pEC50 is 8.10 in assay [1] (setting [5]) and 8.17 in assay [3] (setting [6]). The IC90 in assay [4] was 2.53 nM.
Regarding `CN1CN(C2c3ccccc3CCc3ccccc32)n2cc(C(=O)O)c(=O)c(O)c2C1=O` [II-004], the values for the pEC50 in assay [1] (setting [5]) and in assay [3] (setting [6]) were 7.62 and 8.04, respectively.
The matching figures for `CC(C)N1CN(C2c3ccccc3Oc3ccccc32)n2cc(C(=O)O)c(=O)c(O)c2C1=O` [III-001]: 7.72 and 6.96.
The matching figures for `CC(C)N1CN(C2c3ccccc3C=Cc3ccccc32)n2cc(C(=O)O)c(=O)c(O)c2C1=O` [III-002]: 7.96 and 8.36.
With `CC(C)N1CN(C2c3ccccc3CCc3ccccc32)n2cc(C(N)=O)c(=O)c(O)c2C1=O` [III-003], the pEC50 in assay [1] (setting [5]) is 6.17; in assay [3] (setting [6]), 6.52.
The matching figures for `CON(C)C(=O)c1cn2c(c(O)c1=O)C(=O)N(C(C)C)CN2C1c2ccccc2CCc2ccccc21` [III-004]: 7.57 and 7.68.
The matching figures for `CC(C)N1CN(Cc2ccccc2CCc2ccccc2)n2cc(C(=O)O)c(=O)c(O)c2C1=O` [III-005]: 7.05 and 6.61.
On to `CCCCCN1CN(C2c3ccccc3CCc3ccccc32)n2cc(C(=O)O)c(=O)c(O)c2C1=O` [III-006], for which the pEC50 was 7.60 in assay [1] (setting [5]) and 8.03 in assay [3] (setting [6]).
The matching figures for `O=C(O)c1cn2c(c(O)c1=O)C(=O)N(CC1CCOCC1)CN2C1c2ccccc2CCc2ccccc21` [III-007]: 7.85 and 7.80.
The matching figures for `COc1ccc(CN2CN(C3c4ccccc4CCc4ccccc43)n3cc(C(=O)O)c(=O)c(O)c3C2=O)cc1` [III-008]: 7.72 and 7.85.
The matching figures for `O=C(O)c1cn2c(c(O)c1=O)C(=O)N(Cc1ccc(F)cc1Cl)CN2C1c2ccccc2CCc2ccccc21` [III-009]: 7.43 and 7.72.
`O=C(O)c1cn2c(c(O)c1=O)C(=O)N(CCc1ccc(F)cc1F)CN2C1c2ccccc2CCc2ccccc21` [III-011]: the pEC50 is 7.26 in assay [1] (setting [5]) and 7.01 in assay [3] (setting [6]).
The matching figures for `O=C(O)c1cn2c(c(O)c1=O)C(=O)N(CC1CCCCC1)CN2C1c2ccccc2CCc2ccccc21` [III-012]: 7.42 and 7.68.
On to `O=C(O)c1cn2c(c(O)c1=O)C(=O)N(CC1CC1)CN2C1c2ccccc2CSc2ccccc21` (stereo not shown) [III-013], for which the pEC50 is 8.48 in assay [1] and 8.43 in assay [3].
The matching figures for `O=C(O)c1cn2c(c(O)c1=O)C(=O)N(CC1CC1)CN2C1c2ccccc2CSc2ccccc21` (stereo not shown) [III-014]: 6.89 and 6.56.
For the molecule `O=C(O)c1cn2c(c(O)c1=O)C(=O)N(CC1CCCC1)CN2C1c2ccccc2CCc2ccccc21` [III-015], the pEC50 in assay [1] (setting [5]) was 7.77; in assay [3] (setting [6]), 7.60.
The matching figures for `O=C(O)c1cn2c(c(O)c1=O)C(=O)N(CC1CCC1)CN2C1c2ccccc2CCc2ccccc21` [III-016]: 8.14 and 7.92.
The matching figures for `O=C(O)c1cn2c(c(O)c1=O)C(=O)N(C(C1CC1)C1CC1)CN2C1c2ccccc2CCc2ccccc21` [III-017]: 8.36 and 8.31.
The matching figures for `O=C(O)c1cn2c(c(O)c1=O)C(=O)N(CC1CC1)CN2C(c1ccc(-c2ccccc2)cc1)c1ccc(-c2ccccc2)cc1` [III-018]: 6.40 and 6.76.
For the molecule `CCN1CN(C2c3ccccc3CCc3ccccc32)n2nc(C(=O)O)c(=O)c(O)c2C1=O` [III-019], the pEC50 in assay [1] (setting [5]) was 7.41; in assay [3] (setting [6]), 7.14.
Consider `CC(C)N1CN(C2c3ccccc3CSc3ccccc32)n2cc(C(=O)O)c(=O)c(O)c2C1=O` (stereo not shown) [III-020], for which the figures for the pEC50 in assay [1] and in assay [3] were 6.92 and less than 6.70, respectively.
The matching figures for `CC(C)N1CN(C2c3ccccc3CSc3ccccc32)n2cc(C(=O)O)c(=O)c(O)c2C1=O` (stereo not shown) [III-021]: 8.31 and 8.21.
Turning to `CC(C)N1CN(C2c3ccc(F)cc3CCc3cc(F)ccc32)n2cc(C(=O)O)c(=O)c(O)c2C1=O` [III-023], the pEC50 in assay [1] (setting [5]) is 7.85; in assay [3] (setting [6]), 7.77.
For `Cc1ccc2c(c1)C(N1CN(C(C)C)C(=O)c3c(O)c(=O)c(C(=O)O)cn31)c1cc(C)ccc1CC2` [III-024], the pEC50 in assay [1] (setting [5]) was 7.08; in assay [3] (setting [6]), less than 6.70.
The matching figures for `CC(C)N1CN(C2c3ccc(Cl)cc3CCc3cc(Cl)ccc32)n2cc(C(=O)O)c(=O)c(O)c2C1=O` [III-025]: 7.77 and 7.51.
On to `O=C(O)c1cn2c(c(O)c1=O)C(=O)N(CC1CC1)CN2C(c1ccccc1)c1ccccc1` [III-027], for which the values for the pEC50 in assay [1] (setting [5]) and in assay [3] (setting [6]) were 7.72 and 7.89, respectively.
Regarding `O=C(O)c1cn2c(c(O)c1=O)C(=O)N(C(C1CC1)C1CC1)CN2C1c2ccccc2CSc2ccccc21` (stereo not shown) [III-028], the pEC50 was 8.68 in assay [1] and 8.62 in assay [3].
Take `O=C(O)c1cn2c(c(O)c1=O)C(=O)N(C(C1CC1)C1CC1)CN2C1c2ccccc2CSc2ccccc21` (stereo not shown) [III-029]: the pEC50 in assay [1] is 7.20; in assay [3] it was 6.74.
In the case of `O=C(O)c1cn2c(c(O)c1=O)C(=O)N(CC1CC1)CN2C(c1cccc(-c2ccccc2)c1)c1cccc(-c2ccccc2)c1` [III-030], the figures for the pEC50 in assay [1] (setting [5]) and in assay [3] (setting [6]) were 7.11 and 7.74, respectively.
The matching figures for `Cc1cccc2c1CCc1c(C)cccc1C2N1CN(CC2CC2)C(=O)c2c(O)c(=O)c(C(=O)O)cn21` [III-031]: 8.39 and 8.35.
The matching figures for `Cc1cccc2c1CCc1c(C)cccc1C2N1CN(C(C2CC2)C2CC2)C(=O)c2c(O)c(=O)c(C(=O)O)cn21` [III-032]: 7.55 and 7.77.
The matching figures for `Cc1cccc2c1CCc1c(C)cccc1C2N1CN(CC2CCC2)C(=O)c2c(O)c(=O)c(C(=O)O)cn21` [III-033]: 8.06 and 8.19.
In the case of `O=C(O)c1cn2c(c(O)c1=O)C(=O)N(CC1CC1)CN2C1c2cccc(F)c2CCc2c(F)cccc21` [III-034], the pEC50 in assay [1] (setting [5]) was 8.46; in assay [3] (setting [6]) it was 8.35.
For the molecule `O=C(O)c1cn2c(c(O)c1=O)C(=O)N(CC1CCC1)CN2C1c2cccc(F)c2CCc2c(F)cccc21` [III-035], the pEC50 is 8.14 in assay [1] (setting [5]) and 8.02 in assay [3] (setting [6]).
The matching figures for `O=C(O)c1cn2c(c(O)c1=O)C(=O)N(C(C1CC1)C1CC1)CN2C1c2cccc(F)c2CCc2c(F)cccc21` [III-036]: 8.20 and 8.29.
As for `NC(=O)c1ncn([C@@H]2O[C@H](CO)[C@@H](O)[C@H]2O)n1` [Ribavirin, reference compound], the “Virus infectivity titer (48 h.p.i., PFU/ml)” value in assay [2] was 9 × 10^4 PFU/ml and 6 × 10^6 PFU/ml and 5 × 10^6 PFU/ml.
